The results in this text go back to patent US20260207765A1, “COVALENTLY-MODIFIED STEROID ACID-PEPTIDES HAVING ENHANCED STABILITY AND/OR BIOLOGICAL ACTIVITY” (priority 2022, published 2026).

pEC50: −log10 of the molar value. Positions of bridges follow the written chain, without caps; N, C: chain ends. Residues, ends and D or L forms follow the SMILES beside them. Chains are numbered I, II in the order given. No end group written: not given here. *: point of attachment. Chenodeoxycholyl = C[C@H](CCC(=O)*)[C@H]1CC[C@H]2[C@@H]3[C@H](O)C[C@@H]4C[C@H](O)CC[C@]4(C)[C@H]3CC[C@]12C; Cholyl = C[C@H](CCC(=O)*)[C@H]1CC[C@H]2[C@@H]3[C@H](O)C[C@@H]4C[C@H](O)CC[C@]4(C)[C@H]3C[C@H](O)[C@]12C

For data set [1], the system named is JIMT-1 breast cancer cells. Nature of the data set: Cytotoxicity of steroid acid-peptide conjugates in JIMT-1 cells. The format is cell-based. Particulars: JIMT-1, FIGS. 21A and 21B. How it is done:
(§1) Apoptosis analysis was conducted by flow-cytometry. Briefly, target cells were first treated then washed. Treated cells were then re-suspended in Annexin-V staining buffer prior to staining with Annexin-V and propidium iodine (PI). Fifteen minutes later, cells were washed prior to analysis using BD FACS™ Diva on CANTOII™.
50 mg of CDCA-C-SV40 monomers (or other steroid acid-peptide monomers) were resuspended in 200-500 μL of DMSO. 10 eq of N,N-Diisopropylethylamine (DIPEA) was added to the mixture and incubated in a thermomixer at 37° C. with agitation (1000 rpm) overnight, enabling dimerization of the monomers via their N-terminal cysteine thiol groups to produce (CDCA-C-SV40)2 or other dimers. The samples were then analyzed by UPLC-MS to evaluate dimer formation efficiency. Cell toxicity was evaluated via a Cell Toxicity assay (PrestoBlue™).

The next data set relates to EL4 lymphoma. Nature of the data set: EL4 tumor model in mice. The class given is in vivo, mouse. Particulars: highest tested dose (190 μM), every 48 h, total of 5 injections. How it is done: Female C57BL/6 mice (n=10/group) received a SC injection of 5×10^5 EL4 cells at Day 0. […] For all depletion studies, antibodies were injected via the intraperitoneal route at days 0, 3 and 6 at a concentration of 200 μg/injection. Tumor size and animal survival for all of the above listed in vivo studies was followed thereafter using a digital caliber until reaching endpoints (ulceration or a tumor volume ≥1000 mm^3).

A further data set has as its system EL4 lymphoma cells. The experiment in a line: Apoptosis analysis / kill curve by flow cytometry (Annexin-V, PI). The class given is cell-based, mouse. Here is the method:
as §1
For orientation: Flow cytometry measures light scatter and fluorescence of single cells or particles in a stream.

Data set [2] concerns mesenchymal stromal cells (MSCs). Nature of the data set: Apoptosis analysis by flow cytometry on MSCs. The format is cell-based. To be noted: 190 μM. How it is done: as §1
The subject of the next data set is macrophages. The experiment in a line: Apoptosis analysis by flow cytometry on macrophages. The format is cell-based. To be noted: 190 μM. How it is done:
as §1

Data set [3] deals with bone marrow-derived dendritic cells (DCs). Nature of the data set: Apoptosis analysis by flow cytometry on bone marrow-derived dendritic cells. The format is cell-based, mouse. To be noted: 190 μM. How it is done:
Mouse bone marrow derived DCs (BMDCs) were generated by flushing the whole marrow from mouse femurs using RPMI™ 1640 supplemented with 10% fetal bovine serum (FBS), 50 U/mL Penicillin-Streptomycin, 2 mM L-glutamine, 10 mM HEPES, 1% MEM Non-essential Amino Acids, 1 mM Sodium Pyruvate, 0.5 mM β-mercaptoethanol. Following red blood cell lysis, cells were then cultured in media supplemented with 50 ng/mL murine recombinant GM-CSF. The media was changed on days 2, 4, 6 and 8. On day 9, the media was replaced to include recombinant murine GM-CSF and LPS from Escherichia coli 0111 (1 ng/mL) to stimulate DC maturation. Mature DCs were assessed by flow cytometry for their surface expression of CD3, CD19, NK1.1, CD11c, CD80, CD86, and I-A^b.
as §1

For data set [4], the system named is EL4, B16, E0771, CT-26, 4T1, MBA-MD-468, H460 and A549 cancer cells. Nature of the data set: Annexin-V cytotoxicity screen of bile acid-SV40 conjugates on eight tumor cell lines. The class given is cell-based. Particulars: 190 μM, all eight tumor cell lines. Here is the method:
Annexin-V staining percentage after treatment with different bile acid-SV40 conjugates (190 μM) is shown relative to live cancer cells (i.e., PBS treated cancer cells) by flow cytometry. Cancer cell lines tested were EL4 lymphoma, B16 melanoma, E0771 breast cancer, CT-26 colon carcinoma, 4T1 breast cancer, MBA-MD-468 triple-negative breast cancer, human H460 lung cancer, and human A549 lung cancer. […] SV40 alone was also tested as a negative control.
as §1

The test system of data set [5] is wild-type MSC and B3Z reporter system. Nature of the data set: Antigen cross-presentation, wild-type MSC and B3Z reporter system. To be noted: 50 μM, sample stored 3 months at −80° C. (thawed).

Take `CC(C)[C@H](NC(=O)[C@H](CCCCN)NC(=O)CNC(=O)[C@H](Cc1ccc(O)cc1)NC(=O)CNC(=O)[C@H](CO)NC(=O)[C@H](CSSC[C@H](NC(=O)CC[C@@H](C)[C@H]1CC[C@H]2[C@@H]3[C@H](O)C[C@@H]4C[C@H](O)CC[C@]4(C)[C@H]3CC[C@]12C)C(=O)N[C@@H](CO)C(=O)NCC(=O)N[C@@H](Cc1ccc(O)cc1)C(=O)NCC(=O)N[C@@H](CCCCN)C(=O)N[C@H](C(=O)N[C@@H](CO)C(=O)N[C@@H](CCCNC(=N)N)C(=O)N[C@@H](CCCNC(=N)N)C(=O)NCC(=O)NCC(=O)N[C@@H](Cc1c[nH]cn1)C(=O)N[C@@H](CCC(N)=O)C(=O)N[C@@H](CC(N)=O)C(=O)N[C@@H](CO)C(=O)N[C@@H](Cc1ccc(O)cc1)C(=O)N[C@@H](CCCCN)C(=O)N1CCC[C@H]1C(=O)N[C@@H](Cc1ccc(O)cc1)C(=O)O)C(C)C)NC(=O)CC[C@@H](C)[C@H]1CC[C@H]2[C@@H]3[C@H](O)C[C@@H]4C[C@H](O)CC[C@]4(C)[C@H]3CC[C@]12C)C(=O)N[C@@H](CO)C(=O)N[C@@H](CCCNC(=N)N)C(=O)N[C@@H](CCCNC(=N)N)C(=O)NCC(=O)NCC(=O)N[C@@H](Cc1c[nH]cn1)C(=O)N[C@@H](CCC(N)=O)C(=O)N[C@@H](CC(N)=O)C(=O)N[C@@H](CO)C(=O)N[C@@H](Cc1ccc(O)cc1)C(=O)N[C@@H](CCCCN)C(=O)N1CCC[C@H]1C(=O)N[C@@H](Cc1ccc(O)cc1)C(=O)O` [(CDCA-C-hnRNP D NLS)2] (I: Chenodeoxycholyl-CSGYGKVSRRGGHQNSYKPY-OH / II: Chenodeoxycholyl-CSGYGKVSRRGGHQNSYKPY-OH; disulfide I:1-II:1): the “cytotoxicity of dimerized version versus monomer” value in data set [1] was “enhancement of cytotoxicity”.

Consider `CSCC[C@H](NC(=O)[C@H](CS)NC(=O)CC[C@@H](C)[C@H]1CC[C@H]2[C@@H]3[C@H](O)C[C@@H]4C[C@H](O)CC[C@]4(C)[C@H]3C[C@H](O)[C@]12C)C(=O)NCC(=O)N[C@@H](CCCNC(=N)N)C(=O)N[C@H](C(=O)N[C@@H](CCCNC(=N)N)C(=O)N[C@H](C(=O)N[C@@H](CCCCN)C(=O)N[C@H](C(=O)N[C@H](C(=O)N[C@@H](CCCCN)C(=O)N[C@@H](CCCCN)C(=O)N[C@@H](C)C(=O)N[C@@H](C)C(=O)NCC(=O)NCC(=O)O)C(C)C)[C@@H](C)O)[C@@H](C)O)C(C)C` [CA-C-NLS1 RPS17] (Cholyl-CMGRVRTKTVKKAAGG-OH; N-terminus and C-terminus assumed), for which, in the data set on EL4 lymphoma, the “survival at day 40” value turned out to be 20% and the tumor growth result is given as “significantly delayed tumor growth”.

Take `CC[C@H](C)[C@H](NC(=O)[C@H](CCCNC(=N)N)NC(=O)[C@H](CCCCN)NC(=O)[C@H](CCSC)NC(=O)[C@H](CC(C)C)NC(=O)[C@H](Cc1c[nH]cn1)NC(=O)[C@@H](NC(=O)[C@@H](NC(=O)[C@H](Cc1ccc(O)cc1)NC(=O)CNC(=O)[C@H](C)NC(=O)[C@@H](NC(=O)[C@H](CCCCN)NC(=O)[C@H](CC(N)=O)NC(=O)[C@H](CCCNC(=N)N)NC(=O)[C@H](CC(C)C)NC(=O)[C@H](CCCCN)NC(=O)[C@H](CCCCN)NC(=O)[C@H](CO)NC(=O)[C@H](CS)NC(=O)CC[C@@H](C)[C@H]1CC[C@H]2[C@@H]3[C@H](O)C[C@@H]4C[C@H](O)CC[C@]4(C)[C@H]3C[C@H](O)[C@]12C)[C@@H](C)CC)C(C)C)[C@@H](C)O)C(=O)O` [CA-C-NLS3 RPS17] (Cholyl-CSKKLRNKIAGYVTHLMKRI-OH; N-terminus and C-terminus assumed): in the data set with EL4 lymphoma, the “survival at day 40” value amounted to 20% and the tumor growth result is “significantly delayed tumor growth”.

Turning to `CC(C)[C@H](NC(=O)[C@H](CCCCN)NC(=O)[C@H](CCCNC(=N)N)NC(=O)[C@H](CCCCN)NC(=O)[C@H](CCCCN)NC(=O)[C@H](CCCCN)NC(=O)[C@@H]1CCCN1C(=O)CNC(=O)[C@H](Cc1ccc(O)cc1)NC(=O)CNC(=O)[C@H](CS)NC(=O)CC[C@@H](C)[C@H]1CC[C@H]2[C@@H]3[C@H](O)C[C@@H]4C[C@H](O)CC[C@]4(C)[C@H]3C[C@H](O)[C@]12C)C(=O)NCC(=O)NCC(=O)O` [CA-C-SV40] (Cholyl-CGYGPKKKRKVGG-OH), the “cytotoxicity of Cholic acid-NLS conjugates” value with EL4 lymphoma cells (190 μM, EL4, FIG. 6) is “notably higher”. Also, the pEC50 in the data set on EL4 lymphoma cells (EL4 lymphoma cells, flow cytometry, read-out: EC50 (cell death / kill curve)) is 4.02. The “apoptosis in normal or healthy cells” value (in data set [2]; in the data set with macrophages; in data set [3]) was “induce apoptosis” in each case. The “survival at day 40” value with EL4 lymphoma was determined as 60%.

In data set [4], `CC(C)[C@H](NC(=O)[C@H](CCCCN)NC(=O)[C@H](CCCNC(=N)N)NC(=O)[C@H](CCCCN)NC(=O)[C@H](CCCCN)NC(=O)[C@H](CCCCN)NC(=O)[C@@H]1CCCN1C(=O)CNC(=O)[C@H](Cc1ccc(O)cc1)NC(=O)CNC(=O)[C@H](CS)NC(=O)CC[C@@H](C)[C@H]1CC[C@H]2[C@@H]3[C@H](O)C[C@@H]4C[C@H](O)CC[C@]4(C)[C@H]3CC[C@]12C)C(=O)NCC(=O)NCC(=O)O` [CDCA-C-SV40] (Chenodeoxycholyl-CGYGPKKKRKVGG-OH) had a cytotoxic activity of 100%.

Regarding `CC(=O)N[C@@H](CS)C(=O)O` [NAC, N-acetylcysteine, reference compound], the “rescue from CA-C-SV40-triggered cell death” value with EL4 lymphoma cells (CA-C-SV40 at EC50 dose) was “completely blocked apoptosis”.

Take “CA-C-hnRNPA1: cholic acid conjugated to C-hnRNPA1 M9 NLS peptide (SEQ ID NO: 4) (Cholyl-CSNFGPMKGGNFGGRSSGPY)”: the antigen presentation entry in data set [5] is recorded as “reduced antigen presentation activity”.

In the case of “SV40 NLS: nuclear localization signal from SV40 large T-antigen (PKKKRKV; SEQ ID NO: 2), tested alone as negative control [reference compound]”, the cytotoxic activity entry in the data set on EL4 lymphoma cells is reported as “did not exhibit any cytotoxic activity”.
